Like-named read-outs stand apart in the source and are kept apart here. One block for each compound: values may come before it. Square brackets hold non-standard residues; d marks the D form. Ends that are not written are not given here. Peptide text beside a SMILES is read from it. * marks the point of attachment. Malonyl(2,2-Me2,histaminyl) = CC(C)(C(=O)NCCc1cnc[nH]1)C(=O)*; hArg(Et2) = CCN=C(NCC)NCCCC[C@H](N)C(=O)O; Gly(NCH2CH2Ph) = O=C(O)CNCCc1ccccc1; PEG6 = NCCOCCOCCOCCOCCOCCOCCC(=O)O; Hyp = O=C(O)[C@@H]1C[C@@H](O)CN1; Hpg = N[C@H](C(=O)O)c1ccc(O)cc1; NMeN = CN[C@@H](CC(N)=O)C(=O)O; Aoc(2) = CCCCCC[C@H](N)C(=O)O; NMeL = CN[C@@H](CC(C)C)C(=O)O; Ahp(2) = CCCCC[C@H](N)C(=O)O; Phg = N[C@H](C(=O)O)c1ccccc1; Nle = CCCC[C@H](N)C(=O)O
Assays:
[1] = target: T1, human orexin type 1 receptor (hOX1R) (Homo sapiens, UniProt O43613); assay: Measurement of orexin type 1 receptor agonist activity (FLIPR TETRA intracellular Ca2+ fluorescence); type: cell-based
T1 construct: expressed in transfected cells
T1 sequence (O43613 1-425): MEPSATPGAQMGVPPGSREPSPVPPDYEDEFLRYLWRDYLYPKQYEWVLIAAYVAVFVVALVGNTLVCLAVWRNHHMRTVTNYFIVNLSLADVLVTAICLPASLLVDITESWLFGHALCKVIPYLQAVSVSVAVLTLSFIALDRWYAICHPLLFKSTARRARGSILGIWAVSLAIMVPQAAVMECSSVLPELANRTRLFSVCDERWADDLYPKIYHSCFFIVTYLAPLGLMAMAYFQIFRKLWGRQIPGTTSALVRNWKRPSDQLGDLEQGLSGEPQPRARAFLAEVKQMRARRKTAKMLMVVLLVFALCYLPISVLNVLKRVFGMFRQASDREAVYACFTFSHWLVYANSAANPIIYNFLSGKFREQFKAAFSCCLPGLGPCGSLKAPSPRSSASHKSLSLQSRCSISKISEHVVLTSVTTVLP
Protocol: (§1) Stable cell line generation. Obtainment of cells stably expressing either human orexin type 2 or human orexin type 1 receptor: to obtain a stable cell line the Orexin receptor cDNA was inserted into pcDNA3.1(+) plasmid vector and clones identified by G418 drug resistance selection. […] A single clone for OX2R—CHO and OX1R—CHO were grown in bulk and frozen to generate a cell bank for routine screening.
(§2) Measurement of orexin type 1 receptor agonist activity. Chinese hamster ovary (CHO) cells expressing human orexin type 1 receptor (hOX1R) were seeded in each well of 384 well black clear bottom plates (BD Flacon) at 10,000 cells per well and cultured for 24 h in an Ham's F12 (Gibco) medium containing 10% fetal calf serum (Sigma Aldrich) under the conditions of 37° C., 5% CO2. After removal of the medium, 50 μL of assay buffer 1 (0.1% bovine serum albumin (Sigma Aldrich), 20 mM HEPES (Molecular Dimensions), […] probenecid (Sigma Aldrich), 1× Calcium 5 dye (Molecular Devices) in Hank's balanced salt solution (Invitrogen)) was added, and the cells were incubated for 60 min under the conditions of 37° C., 5% CO2. A test peptide was dissolved in dimethyl sulfoxide (Sigma Aldrich) to 1 mM, and then diluted with assay buffer 2 (20 mM HEPES, Hank's balanced salt solution, 0.1% bovine serum albumin). For the reaction, a test peptide solution (10 μl) was added using Fluorescent Imaging Plate Reader TETRA (FLIPR TETRA: manufactured by Molecular Devices), a fluorescence value (excitation wavelength 488 nm, measurement wavelength 570 nm) of each well was measured every one second for 2 min, and the agonist activity was determined using the area of the fluorescence value as an indicator of intracellular Ca^2+ concentration. The agonist activity of the test peptide was calculated assuming that the fluorescence value of the well added with only the dilution buffer was 0% and the fluorescence value of the well added with 10 nM human orexin A (Tocris) buffer was 100%. As used herein, Emax indicates the value at 1 μM concentration when orexin A is converted to a full agonist (maximum value of agonist activity: 100%).

[2] = target: T2, human orexin type 2 receptor (hOX2R) (Homo sapiens, UniProt O43614); assay: Measurement of orexin type 2 receptor agonist activity (FLIPR TETRA intracellular Ca2+ fluorescence); type: cell-based
T2 construct: expressed in transfected cells
T2 sequence (O43614 1-444): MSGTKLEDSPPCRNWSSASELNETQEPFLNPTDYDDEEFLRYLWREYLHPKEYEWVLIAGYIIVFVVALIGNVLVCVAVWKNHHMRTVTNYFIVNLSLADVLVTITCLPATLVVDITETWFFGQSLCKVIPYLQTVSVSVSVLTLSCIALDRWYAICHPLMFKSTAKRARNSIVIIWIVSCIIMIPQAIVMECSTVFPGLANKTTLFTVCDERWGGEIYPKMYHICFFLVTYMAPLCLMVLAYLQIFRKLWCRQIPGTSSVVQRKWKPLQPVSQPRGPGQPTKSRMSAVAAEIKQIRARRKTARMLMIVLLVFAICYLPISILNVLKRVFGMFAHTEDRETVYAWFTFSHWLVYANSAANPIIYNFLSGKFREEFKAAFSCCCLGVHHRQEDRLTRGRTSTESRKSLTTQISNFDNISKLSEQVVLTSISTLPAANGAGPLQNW
Protocol: as §1
as §2, with “type 2” for “type 1”, “receptor (hOX2R)” for “receptor (hOX1R) were”

individuals with NT1 = settings: initial clinical studies; cited from earlier work
OX2R [3] = settings: subcutaneous, cited from earlier work
OX2R [4] = target: T3, OX2R (Mus musculus, UniProt P58308); settings: cited from earlier work
T3 construct: host or cells: mice in vivo (WT, orexin ligand-deficient, NT1 model, OX2R-knockout)
T3 sequence (P58308 1-460): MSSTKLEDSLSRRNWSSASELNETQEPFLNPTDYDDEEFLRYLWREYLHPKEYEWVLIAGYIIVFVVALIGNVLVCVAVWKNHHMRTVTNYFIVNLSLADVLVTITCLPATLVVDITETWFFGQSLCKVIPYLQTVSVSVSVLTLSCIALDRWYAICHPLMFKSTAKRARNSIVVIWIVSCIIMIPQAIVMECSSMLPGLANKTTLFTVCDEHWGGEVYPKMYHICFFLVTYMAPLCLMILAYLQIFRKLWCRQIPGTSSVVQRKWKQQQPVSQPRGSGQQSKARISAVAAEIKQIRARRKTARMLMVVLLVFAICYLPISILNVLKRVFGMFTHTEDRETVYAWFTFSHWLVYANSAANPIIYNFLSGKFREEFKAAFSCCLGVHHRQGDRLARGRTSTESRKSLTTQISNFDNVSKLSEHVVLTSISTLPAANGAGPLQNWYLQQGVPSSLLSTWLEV

[5] = system: orexin-neuron ablated mice; settings: ICV; cited from earlier work
[6] = CHO cells expressing hOX1R, agonist activity, Ca2+ fluorescence, read-out: hOX1 pEC50 (converted)
[7] = CHO cells expressing hOX2R, agonist activity, Ca2+ fluorescence, read-out: hOX2 pEC50 (converted)

Compound: CCCCCC[C@H](NC(=O)[C@@H](NC(=O)[C@H](CC(C)C)NC(=O)[C@@H](NC(=O)CNC(=O)[C@@H](NC(=O)[C@H](C)NC(=O)[C@H](Cc1c[nH]cn1)NC(=O)[C@H](CC(N)=O)NC(=O)CN(CCc1ccccc1)C(=O)[C@H](CCCCNC(=NCC)NCC)NC(=O)C(C)(C)C(=O)NCCc1cnc[nH]1)c1ccc(O)cc1)[C@@H](C)CC)[C@@H](C)O)C(N)=O [Peptide 25] ({Malonyl(2,2-Me2,histaminyl)}-[hArg(Et2)][Gly(NCH2CH2Ph)]NHA[Hpg]GILT[Aoc(2)]-NH2)
EC50 [1]: > 10 nM
EC50 [2]: < 0.1 nM

Compound: CCCCCC[C@H](NC(=O)[C@@H](NC(=O)[C@H](CC(C)C)NC(=O)[C@@H](NC(=O)CNC(=O)[C@@H](NC(=O)[C@H](C)NC(=O)[C@H](Cc1c[nH]cn1)NC(=O)[C@H](CC(N)=O)NC(=O)CN(CCc1ccccc1)C(=O)[C@H](CCCCNC(=NCC)NCC)NC(=O)[C@H](CCC(N)=O)NC(=O)C(C)(C)C(=O)NCCc1cnc[nH]1)c1ccccc1)[C@@H](C)CC)[C@@H](C)O)C(N)=O [Peptide 26] ({Malonyl(2,2-Me2,histaminyl)}-Q[hArg(Et2)][Gly(NCH2CH2Ph)]NHA[Phg]GILT[Aoc(2)]-NH2)
EC50 [1]: > 10 nM
EC50 [2]: < 0.1 nM

Compound: CCCCCC[C@H](NC(=O)[C@@H](NC(=O)[C@H](CC(C)C)N(C)C(=O)[C@@H](NC(=O)CNC(=O)[C@@H](NC(=O)[C@H](C)NC(=O)[C@@H]1C[C@@H](O)CN1C(=O)[C@H](CC(N)=O)N(C)C(=O)CN(CCc1ccccc1)C(=O)[C@H](CCCNC(=N)N)NC(=O)CCOCCOCCOCCOCCOCCOCCN)c1ccccc1)[C@@H](C)CC)[C@@H](C)O)C(N)=O [Peptide 31] (H-[PEG6]R[Gly(NCH2CH2Ph)][NMeN][Hyp]A[Phg]GI[NMeL]T[Aoc(2)]-NH2)
EC50 [1, 6]: > 10 nM
EC50 [2, 7]: < 0.1 nM

Compound: COC(=O)N1CCC[C@H](NS(C)(=O)=O)[C@@H]1CO[C@H]1CC[C@@H](c2ccccc2)CC1 [TAK-925]
cataplexy (individuals with NT1): trends for decreasing cataplexy
wakefulness (individuals with NT1): substantial levels of increased wakefulness
wakefulness (OX2R [3]; OX2R-knockout mice): not in OX2R-knockout mice
wakefulness (OX2R [3]; WT mice): modestly increased wakefulness

Compound: COc1ccc(-c2cccc(C(=O)N(C)C)c2)cc1S(=O)(=O)Nc1cccc(NCCNC(=O)c2ccccc2N(C)C)c1 [YNT-185]
sleep-onset REM periods and cataplexy-like events (OX2R [4]; NT1 mouse model): decreases sleep-onset REM periods and cataplexy-like events
wakefulness (OX2R [4]; intraperitoneally or ICV, wild type (WT) and orexin ligand-deficient mice): modestly increases wakefulness

Compound: orexin A (QPLPDCCRQKTCSCRLYELLHGAGNHAAGILTL; ends and bridges not checked; cysteine pairing not given here; UniProt O43612 34-66, looked up) [orexin A (OXA), orexin neuropeptide cleaved from prepro-orexin]
cataplexy-like behavior [5]: decreases cataplexy-like behavior
time spent awake [5]: increase time spent awake

The next lines start with the values.

EC50 [1, 6]: > 10 nM
EC50 [2, 7]: < 0.1 nM
Compound: CCCCC[C@H](NC(=O)[C@@H](NC(=O)[C@H](CC(C)C)NC(=O)[C@@H](NC(=O)CNC(=O)[C@@H](NC(=O)[C@H](C)NC(=O)[C@@H]1C[C@@H](O)CN1C(=O)[C@H](CC(N)=O)NC(=O)CN(CCc1ccccc1)C(=O)[C@H](CCCNC(=N)N)NC(=O)CCOCCOCCOCCOCCOCCOCCN)c1ccccc1)[C@@H](C)CC)[C@@H](C)O)C(N)=O [Peptide 27] (H-[PEG6]R[Gly(NCH2CH2Ph)]N[Hyp]A[Phg]GILT[Ahp(2)]-NH2)

EC50 [1, 6]: > 10 nM
EC50 [2, 7]: < 0.1 nM
Compound: CCCC[C@H](NC(=O)[C@@H](NC(=O)[C@H](CC(C)C)NC(=O)[C@@H](NC(=O)CNC(=O)[C@@H](NC(=O)[C@H](C)NC(=O)[C@@H]1C[C@@H](O)CN1C(=O)[C@H](CC(N)=O)NC(=O)CN(CCc1ccccc1)C(=O)[C@H](CCCNC(=N)N)NC(=O)CCOCCOCCOCCOCCOCCOCCN)c1ccccc1)[C@@H](C)CC)[C@@H](C)O)C(N)=O [Peptide 28] (H-[PEG6]R[Gly(NCH2CH2Ph)]N[Hyp]A[Phg]GILT[Nle]-NH2)

EC50 [1, 6]: > 10 nM
EC50 [2, 7]: < 0.1 nM
Compound: CCCCCC[C@H](NC(=O)[C@@H](NC(=O)[C@H](CC(C)C)N(C)C(=O)[C@@H](NC(=O)CNC(=O)[C@@H](NC(=O)[C@H](C)NC(=O)[C@@H]1C[C@@H](O)CN1C(=O)[C@H](CC(N)=O)NC(=O)CN(CCc1ccccc1)C(=O)[C@H](CCCNC(=N)N)NC(=O)CCOCCOCCOCCOCCOCCOCCN)c1ccccc1)[C@@H](C)CC)[C@@H](C)O)C(N)=O [Peptide 29] (H-[PEG6]R[Gly(NCH2CH2Ph)]N[Hyp]A[Phg]GI[NMeL]T[Aoc(2)]-NH2)

EC50 [1, 6]: > 10 nM
EC50 [2, 7]: < 0.1 nM
Compound: CCCCC[C@H](NC(=O)[C@@H](NC(=O)[C@H](CC(C)C)NC(=O)[C@@H](NC(=O)CNC(=O)[C@@H](NC(=O)[C@H](C)NC(=O)[C@@H]1C[C@@H](O)CN1C(=O)[C@H](CC(N)=O)N(C)C(=O)CN(CCc1ccccc1)C(=O)[C@H](CCCNC(=N)N)NC(=O)CCOCCOCCOCCOCCOCCOCCN)c1ccccc1)[C@@H](C)CC)[C@@H](C)O)C(N)=O [Peptide 30] (H-[PEG6]R[Gly(NCH2CH2Ph)][NMeN][Hyp]A[Phg]GILT[Ahp(2)]-NH2)
